Experimental data from patent US20080234262A1 (Wyeth, priority 2007, published 2008).

How the values were obtained:
PI3K = PI3K (Homo sapiens, UniProt P42336); test: Fluorescence polarization assay for PI3K; assay type: biochemical; conditions: PI3Kα; read-out: PI3Kα IC50;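 note: PI3K kinase reaction on PIP2 with ATP, 30-60 min, product sensed by GST-GRP with red probe in fluorescence polarization (mP), controls without enzyme and at zero time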
prostate line LNCap = test: In vitro cell culture growth assay (MTS), LNCap; assay type: cell-based, human; conditions: Homo sapiens, LNCaP, 72 h, LNCap cells, three days after drug treatment;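 note: viable cell density read by absorbance at 490 nm, growth expressed as percent of vehicle-treated cells on the same plate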
breast line MDA468 = test: In vitro cell culture growth assay (MTS), MDA468; assay type: cell-based, human; conditions: Homo sapiens, 72 h, MDA468 cells, three days after drug treatment
In short: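 Three-day drug treatment starting 1 day post-plating; viable cells quantified via MTS metabolism (A490); effect normalised to in-plate vehicle controls as % growth.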

Sequence of PI3K (P42336 whole entry): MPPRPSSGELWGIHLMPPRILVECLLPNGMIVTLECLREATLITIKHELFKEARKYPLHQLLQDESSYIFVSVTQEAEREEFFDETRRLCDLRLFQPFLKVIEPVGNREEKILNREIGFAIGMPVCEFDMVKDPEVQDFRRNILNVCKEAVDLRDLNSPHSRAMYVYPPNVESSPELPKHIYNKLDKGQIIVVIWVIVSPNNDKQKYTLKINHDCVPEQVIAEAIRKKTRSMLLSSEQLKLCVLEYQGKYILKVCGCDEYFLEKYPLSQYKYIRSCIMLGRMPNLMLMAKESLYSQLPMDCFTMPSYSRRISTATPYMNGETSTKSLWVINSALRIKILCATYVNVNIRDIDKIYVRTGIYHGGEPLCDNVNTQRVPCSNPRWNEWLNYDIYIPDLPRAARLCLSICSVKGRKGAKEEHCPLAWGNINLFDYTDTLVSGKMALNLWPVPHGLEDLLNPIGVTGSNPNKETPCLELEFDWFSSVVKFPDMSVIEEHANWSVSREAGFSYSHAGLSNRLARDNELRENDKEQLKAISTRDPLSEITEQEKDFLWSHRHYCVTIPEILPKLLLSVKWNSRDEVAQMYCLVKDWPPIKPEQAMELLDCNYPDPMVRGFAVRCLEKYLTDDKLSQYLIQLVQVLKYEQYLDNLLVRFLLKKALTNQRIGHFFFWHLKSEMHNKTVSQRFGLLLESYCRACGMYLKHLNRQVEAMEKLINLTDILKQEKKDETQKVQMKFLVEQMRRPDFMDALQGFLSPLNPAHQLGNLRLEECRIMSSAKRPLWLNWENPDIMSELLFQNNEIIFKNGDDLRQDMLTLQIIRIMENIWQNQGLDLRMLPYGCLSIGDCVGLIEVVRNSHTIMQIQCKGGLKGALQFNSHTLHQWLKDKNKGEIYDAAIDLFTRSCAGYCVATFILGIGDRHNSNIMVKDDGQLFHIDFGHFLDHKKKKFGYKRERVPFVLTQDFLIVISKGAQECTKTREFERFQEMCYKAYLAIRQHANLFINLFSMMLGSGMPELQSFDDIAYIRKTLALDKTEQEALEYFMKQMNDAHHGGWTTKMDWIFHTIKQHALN
Sequence of PI3K (P27986 whole entry partner): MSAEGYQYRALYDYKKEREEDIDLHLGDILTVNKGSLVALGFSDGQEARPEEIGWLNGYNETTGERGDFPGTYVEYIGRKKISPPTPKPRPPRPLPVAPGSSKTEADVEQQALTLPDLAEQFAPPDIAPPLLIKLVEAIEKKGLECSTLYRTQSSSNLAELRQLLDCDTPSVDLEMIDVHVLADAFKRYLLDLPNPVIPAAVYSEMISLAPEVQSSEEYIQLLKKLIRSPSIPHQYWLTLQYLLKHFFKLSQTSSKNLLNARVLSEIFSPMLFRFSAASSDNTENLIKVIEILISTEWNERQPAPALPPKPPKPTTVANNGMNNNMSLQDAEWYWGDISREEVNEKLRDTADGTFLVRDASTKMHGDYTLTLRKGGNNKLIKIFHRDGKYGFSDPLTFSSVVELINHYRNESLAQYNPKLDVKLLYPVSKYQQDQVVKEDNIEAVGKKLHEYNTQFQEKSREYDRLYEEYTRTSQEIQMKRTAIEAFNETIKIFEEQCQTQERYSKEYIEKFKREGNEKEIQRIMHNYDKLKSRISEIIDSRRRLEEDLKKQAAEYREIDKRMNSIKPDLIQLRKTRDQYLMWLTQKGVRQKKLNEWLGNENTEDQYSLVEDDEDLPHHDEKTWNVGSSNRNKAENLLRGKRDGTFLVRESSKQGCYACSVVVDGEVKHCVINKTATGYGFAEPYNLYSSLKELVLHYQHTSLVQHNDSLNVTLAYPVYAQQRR

| IC50 (PI3K) [nM] | IC50 (prostate line LNCap) [nM] | SMILES | IC50 (breast line MDA468) [nM] |
| --- | --- | --- | --- |
| 7290 | 2500 | OCCCN1CCC(n2ncc3c(N4CCOCC4)nc(-c4ccc5[nH]ccc5c4)nc32)CC1 [Compound 247, 3-{4-[6-(1H-indol-5-yl)-4-morpholin-4-yl-1H-pyrazolo[3,4-d]pyrimidin-1-yl]piperidin-1-yl}propan-1-ol] | 3000 |
| 939 | 3500 | c1cc2cc(-c3nc(N4CCOCC4)c4cn[nH]c4n3)ccc2[nH]1 [Compound 248, 6-(1H-indol-5-yl)-4-morpholin-4-yl-1H-pyrazolo[3,4-d]pyrimidine] | 9000 |
| 2800 | 1000 | O=CN1CCC(n2ncc3c(N4CCOCC4)nc(-c4ccc5[nH]ccc5c4)nc32)CC1 [Compound 251, 4-[6-(1H-indol-5-yl)-4-morpholin-4-yl-1H-pyrazolo[3,4-d]pyrimidin-1-yl]piperidine-1-carbaldehyde] | 3000 |
| 2140 | 1000 | O=C(NCCc1ccccc1)Nc1ccc(-c2nc(N3CCOCC3)c3cnn(C4CCN(Cc5ccccc5)CC4)c3n2)cc1 [Compound 259, 1-{4-[1-(1-benzylpiperidin-4-yl)-4-morpholin-4-yl-1H-pyrazolo[3,4-d]pyrimidin-6-yl]phenyl}-3-(2-phenylethyl)urea] | 20000 |
| 7030 | 4500 | O=C(NCCCc1ccccc1)Nc1ccc(-c2nc(N3CCOCC3)c3cnn(C4CCN(Cc5ccccc5)CC4)c3n2)cc1 [Compound 260, 1-{4-[1-(1-benzylpiperidin-4-yl)-4-morpholin-4-yl-1H-pyrazolo[3,4-d]pyrimidin-6-yl]phenyl}-3-(3-phenylpropyl)urea] | 60000 |
| 753 | 600 | COCCCNC(=O)Nc1ccc(-c2nc(N3CCOCC3)c3cnn(C4CCN(Cc5ccccc5)CC4)c3n2)cc1 [Compound 270, 1-{4-[1-(1-benzylpiperidin-4-yl)-4-morpholin-4-yl-1H-pyrazolo[3,4-d]pyrimidin-6-yl]phenyl}-3-(3-methoxypropyl)urea] | 3200 |
| 158 | 650 | CN(C)CCCNC(=O)Nc1ccc(-c2nc(N3CCOCC3)c3cnn(C4CCN(Cc5ccccc5)CC4)c3n2)cc1 [Compound 271, 1-{4-[1-(1-benzylpiperidin-4-yl)-4-morpholin-4-yl-1H-pyrazolo[3,4-d]pyrimidin-6-yl]phenyl}-3-[3-(dimethylamino)propyl]urea] | 2000 |
| 8320 | 1950 | COc1cccc(C(=O)Nc2ccc(-c3nc(N4CCOCC4)c4cnn(C5CCCCO5)c4n3)cc2)c1 (stereo not drawn) [Compound 273, 3-methoxy-N-{4-[4-morpholin-4-yl-1-(tetrahydro-2H-pyran-2-yl)-1H-pyrazolo[3,4-d]pyrimidin-6-yl]phenyl}benzamide] | 60000 |
| 9000 | 12000 | CN(C)CC(=O)Nc1ccc(-c2nc(N3CCOCC3)c3cnn(C4CCCCO4)c3n2)cc1 (stereo not drawn) [Compound 275] | 40000 |
| 6470 | 11000 | CN(C)c1ccc(CC(=O)Nc2ccc(-c3nc(N4CCOCC4)c4cnn(C5CCCCO5)c4n3)cc2)cc1 (stereo not drawn) [Compound 276, 2-[4-(dimethylamino)phenyl]-N-{4-[4-morpholin-4-yl-1-(tetrahydro-2H-pyran-2-yl)-1H-pyrazolo[3,4-d]pyrimidin-6-yl]phenyl}acetamide] | 60000 |
| 1170 | 7200 | O=C(Nc1ccc(-c2nc(N3CCOCC3)c3cn[nH]c3n2)cc1)c1cccnc1 [Compound 278, N-[4-(4-morpholin-4-yl-1H-pyrazolo[3,4-d]pyrimidin-6-yl)phenyl]nicotinamide] | 60000 |
| 612 | 3000 | COC(=O)Nc1ccc(-c2nc(N3CCOCC3)c3cn[nH]c3n2)cc1 [Compound 279, methyl [4-(4-morpholin-4-yl-1H-pyrazolo[3,4-d]pyrimidin-6-yl)phenyl]carbamate] | 12000 |
| 601 | 3400 | C=CC(=O)Nc1ccc(-c2nc(N3CCOCC3)c3cn[nH]c3n2)cc1 [Compound 280, N-[4-(4-morpholin-4-yl-1H-pyrazolo[3,4-d]pyrimidin-6-yl)phenyl]acrylamide] | 7000 |
| 2270 | 7000 | CN(C)CC(=O)Nc1ccc(-c2nc(N3CCOCC3)c3cn[nH]c3n2)cc1 [Compound 281, N~2~,N~2~-dimethyl-N-[4-(4-morpholin-4-yl-1H-pyrazolo[3,4-d]pyrimidin-6-yl)phenyl]glycinamide] | 18000 |
| 128 | 9000 | NCC(=O)Nc1ccc(-c2nc(N3CCOCC3)c3cn[nH]c3n2)cc1 [Compound 282, N-[4-(4-morpholin-4-yl-1H-pyrazolo[3,4-d]pyrimidin-6-yl)phenyl]glycinamide] | 11000 |
| 885 | 5300 | CN1CCC(C(=O)Nc2ccc(-c3nc(N4CCOCC4)c4cn[nH]c4n3)cc2)CC1 [Compound 284, 1-methyl-N-[4-(4-morpholin-4-yl-1H-pyrazolo[3,4-d]pyrimidin-6-yl)phenyl]piperidine-4-carboxamide] | 22000 |
| 4230 | 3000 | O=C(Nc1ccc(-c2nc(N3CCOCC3)c3cnn(C4CCN(Cc5ccccc5)CC4)c3n2)cc1)NN1CCCC1 [Compound 291, 1-{4-[1-(1-benzylpiperidin-4-yl)-4-morpholin-4-yl-1H-pyrazolo[3,4-d]pyrimidin-6-yl]phenyl}-3-pyrrolidin-1-ylurea] | 10000 |
| 404 | 1800 | CONC(=O)Nc1ccc(-c2nc(N3CCOCC3)c3cnn(-c4ccccc4)c3n2)cc1 [Compound 295, 1-methoxy-3-[4-(4-morpholin-4-yl-1-phenyl-1H-pyrazolo[3,4-d]pyrimidin-6-yl)phenyl]urea] | 5000 |
| 896 | 3000 | C=CCONC(=O)Nc1ccc(-c2nc(N3CCOCC3)c3cnn(-c4ccccc4)c3n2)cc1 [Compound 296, 1-(allyloxy)-3-[4-(4-morpholin-4-yl-1-phenyl-1H-pyrazolo[3,4-d]pyrimidin-6-yl)phenyl]urea] | 60000 |
| 199 | 100 | O=C(NO)Nc1ccc(-c2nc(N3CCOCC3)c3cnn(C4CCN(Cc5ccccc5)CC4)c3n2)cc1 [Compound 310, 1-{4-[1-(1-benzylpiperidin-4-yl)-4-morpholin-4-yl-1H-pyrazolo[3,4-d]pyrimidin-6-yl]phenyl}-3-hydroxyurea] | 1100 |
| 173 | 400 | C#CCNC(=O)Nc1ccc(-c2nc(N3CCOCC3)c3cnn(C4CCN(Cc5ccccc5)CC4)c3n2)cc1 [Compound 312, 1-{4-[1-(1-benzylpiperidin-4-yl)-4-morpholin-4-yl-1H-pyrazolo[3,4-d]pyrimidin-6-yl]phenyl}-3-prop-2-yn-1-ylurea] | 3900 |
| 259 | 1100 | O=C(NO)Nc1ccc(-c2nc(N3CCOCC3)c3cnn(C4CCN(Cc5cccnc5)CC4)c3n2)cc1 [Compound 317, 1-hydroxy-3-(4-{4-morpholin-4-yl-1-[1-(pyridin-3-ylmethyl)piperidin-4-yl]-1H-pyrazolo[3,4-d]pyrimidin-6-yl}phenyl)urea] | 1500 |

| SMILES | IC50 (PI3K) [nM] | IC50 (prostate line LNCap) [nM] | IC50 (breast line MDA468) [nM] |
| --- | --- | --- | --- |
| NCCC(=O)Nc1ccc(-c2nc(N3CCOCC3)c3cn[nH]c3n2)cc1 [Compound 283] | 203 | 1500 | 13000 |
